These results are taken from patent publication US12358880B2, “1,4-bis-(2-hydroxy-benzyl)-1,4,7-triazacyclononane derivatives and similar compounds as ligands in iron(III) complexes for use as MRI contrast agents” (BRACCO IMAGING S.P.A., priority 2022, dated 2025).

For series [1] the following is noted: 0.15M NaNO3; from Baranyai et al., Chem. Sci. 2021; cited from earlier work.
A short description of series [2]: Protonation constants of the Fe(III) complexes (pH-potentiometry / UV spectrophotometry). The class given is physicochemical. As for the experimental part: The protonation constants (KMHiLigand=[MHiLigand]/([MHi-1Ligand]×[H^+])) of the Fe(III) complexes of Compound 2, of Compound 4, of NOTA (comparative), and of HBED (comparative) were determined by pH-potentiometric and/or by spectrophotometric studies.
In particular, the protonation constants of the Fe(NOTA) and Fe(HBED) complexes were determined using pH-potentiometry by titrating the pre-prepared complexes from pH=1.7 to pH=12.0 with 0.2 M NaOH([FeL]=0.002 M). For the pH measurements and titrations, Metrohm 888 Titrando titration workstation Metrohm-6.0234.110 combined electrode was used. Equilibrium measurements were carried out at a constant ionic strength (0.15 M NaNO3 or NaClO4) in 6 ml samples at 25° C. The solutions were stirred, and N2 was bubbled through them. The titrations were made in the pH range of 1.7-12.0. KH-phthalate (pH=4.005) and borax (pH=9.177) buffers were used to calibrate the pH meter. For the calculation of [H^+] from the measured pH values, the method disclosed in Irving et al. Anal. Chim. Acta, 1967, 38, 475-488 was used as follows: a 0.01M HNO3 or HClO4 solution was titrated with a standardized NaOH solution at 0.15 M NaNO3 ionic strength. The differences (A) between the measured (pHread) and calculated pH (−log [H^+]) values were used to obtain the equilibrium H^+ concentration from the pH values measured in the titration experiments (A=0.02 for 0.15 M NaNO3, 0.01 for 0.15 M NaClO4). For the equilibrium calculations, the stoichiometric water ionic product (pKw) was also needed to calculate [OH^−] values under basic conditions. The VNaOH-pHread data pairs of the HNO3—NaOH titration obtained in the pH range 10.5-12.0 were used to calculate the pKw value (pKw=13.76).
The protonation constants of Fe(Compound 2) and Fe(Compound 4) complexes were determined by UV spectrophotometry analysis in the wavelength range of 210-700 nm ([Fe(Compound 2)]=43 μM, [Fe(Compound 4)]=100 μM, 0.15 M NaClO4, 25° C.) according to the method disclosed in Example 11A above.

For series [3] the following is noted: for pFe (−log [Fe^3+]free, conditional stability): 10 µM, pH 7.4.
Experimental: (§1) To assess the thermodynamic stability of the Fe(III) complexes of the invention, as well as of comparative ones, the protonation constants of the respective ligands first, and then of the Fe(III) complexes, were determined by pH-potentiometry and/or by UV spectrophotometry. Finally, based on the protonation constants, the thermodynamic stability constant of the Fe(III) complexes of the invention were determined by observing the competition reaction between the Fe(III) complexes and the N,N′-bis(2-hydroxybenzyl)ethylenediamine-N,N′-diacetic acid (HBED) ligand using capillary zone electrophoresis (CZE) for Compound 2 and Vis spectrophotometry for Compound 4.
(§2) The thermodynamic stability constants (KMLigand=([MLigand]/([M]×[Ligand])) of the Fe(III) complexes were determined as follows.
(§3) The stability constant of the Fe(NOTA) complex was determined by spectrophotometry studies of the Fe^3+-NOTA system at the absorption band of Fe^III complexes at [H^+]=0.01-3.0 M in the wavelength range of 350-800 nm. The concentrations of Fe^3+ and NOTA were 0.002 M. The H^+ concentration in the samples was adjusted with the addition of calculated amounts of a 6 M solution of HNO3 (I=[Na^+]+[H^+]=0.15, [H^+]≤0.15 M). The samples were kept at 25° C. for two weeks.
(§4) The absorbance values of the samples were determined at 11 wavelengths (370, 380, 390, 395, 400, 405, 410, 415, 420, 425 and 430 nm). For the calculations of the thermodynamic stability constant of the Fe(NOTA), the molar absorptivities of Fe^3+ and Fe(NOTA) were determined by recording the spectra of 1.0×10^−3, 1.5×10^−3, 2.0×10^−3 and 2.5×10^−3 M solutions of Fe^3+ and Fe(NOTA) solutions. The absorption spectra of the Fe(NOTA) solutions were recorded in the pH range of 1.7-7.5. All spectrophotometric measurements were performed at 25° C. in 0.15 M NaNO3 solution. The pH was adjusted by stepwise addition of concentrated NaOH or HNO3 solutions.
(§5) The stability constants of the Fe(HBED) complex was determined by following the competition reaction between HBED and NOTA ligands for Fe^3+-ion with spectrophotometry at the absorption band of Fe(HBED) complex in the wavelength range of 400-700 nm. […] The time needed to reach the equilibria was determined by spectrophotometry. The absorbance values of the samples were determined at the absorption band of the Fe(HBED) complex ([Fe(HBED)]-species predominates at pH=5.0). For the calculations of the thermodynamic stability constants of the Fe(HBED) complexes, the molar absorptivities of [Fe(HBED)]-species were determined by recording the spectra of 0.5, 0.1 and 0.2 mM solutions of [Fe(HBED)]^− at pH=5 in the presence of 0.15 M NaNO3. […] The thermodynamic stability constants were calculated with the PSEQUAD program. […]
Series [4] can be described thus: Kinetic inertness: transchelation reactions with excess HBED as exchanging ligand. It counts as physicochemical. The protocol: To obtain data relating to the kinetic inertness of Fe(Compound 2), Fe(Compound 4) and Fe(NOTA) (comparative), the transchelation reactions (schematized below) were investigated by VIS-spectrophotometry (for Fe(Compound 4) and Fe(NOTA), comparative) and by Capillary Zone Electrophoresis (CZE) (for Fe(Compound 2)) in the presence of a large excess of HBED as an exchanging ligand (Fe(Compound 2): [Fe(Compound 2)]=87 μM, [HBED]=0.1 and 0.2 M, 1.0 M NaClO4, 25° C.; Fe(Compound 4): [Fe(Compound 4)]=100 μM, [HBED]=0.002 and 0.02 M, 0.15 M NaNO3, 25° C. Fe(NOTA): [Fe(NOTA)]=0.2 mM, [HBED]=2.0 and 4.0 mM, 0.15 M NaNO3, 25° C.) in order to guarantee the pseudo-first order kinetic conditions. FeL+HBED ? Fe(HBED)+L with L=Compound 2, Compound 4 or NOTA. A) Determination of Kinetic Inertness of Fe(III) Complexes
The transchelation reactions of Fe(Compound 4) and Fe(NOTA) (comparative) were studied by spectrophotometry, following the formation of the resulting Fe(HBED) complex at 472 and 470 nm with PerkinElmer Lambda 365 UV-Vis spectrophotometer. The concentration of the Fe(Compound 4) and Fe(NOTA) complex was 0.1 and 0.2 mM, while the concentration of the HBED was 10-200 times higher, in order to guarantee pseudo-first-order conditions. The temperature was maintained at 25° C. and the ionic strength of the solutions was kept constant, 0.15 M for NaNO3. The exchange rates were studied in the pH range about 9.5-14.0. Buffer was not used since the excess of HBED was able to maintain the constant pH values at pH<12. […] The pseudo-first-order rate constants (kd) were calculated by fitting of the absorbance—time data pairs to Equation 2.
[formula] where At, A0 and Ap are the absorbance values at time t, the start of the reaction and at equilibrium, respectively. […] The pseudo-first-order rate constants (kd) were calculated by fitting the area-time data pairs to Equation 2 above, where At, A0 and Ap are the area values at time t, the start of the reaction and at equilibrium, respectively. […]

Series [5] in a line: Thermodynamic stability of the Fe(III) complexes (competition with HBED/NOTA, CZE or spectrophotometry). Conditions: Spectrophotometry, 0.15M NaNO3, 25° C.
Experimental: as §1, §2, §3, §4, §5
The conditions of series [6]: 60 MHZ, 40° C. in PBS buffer; cited from earlier work.
The mark [7] stands for this setting: Spectrophotometry, 0.15M NaClO4, 25° C.
Where [8] appears, read: 0.15M NaNO3, 25° C., spectrophotometry.
Setting [9] is: pH-potentiometry, 0.15M NaNO3, 25° C.

Read-outs that look alike come from different tables or passages of the source. Marks after values point to notes of the source that are not given here.

For `O=C(O)CN(CC(=O)O)C1CCCCC1N(CC(=O)O)CC(=O)O` (stereo not drawn) [CDTA, trans-cyclohexane diamine tetraacetic acid], the “kd (s^−1) at pH = 7.4 (dissociation rate constant)” value (from here on “kd”) in series [1] is 2.1 × 10^−9 s^−1.

With `Cc1cc(CNC(CO)CO)c(O)c(CN2CCN(Cc3cc(C)cc(CNC(CO)CO)c3O)CCN(Cc3cc(C)cc(CNC(CO)CO)c3O)CC2)c1` [Compound 2, 2,2′,2″-{1,4,7-triazonane-1,4,7-triyltris[methylene(2-hydroxy-5-methyl-3,1-phenylene)methyleneazanediyl]}tri(propane-1,3-diol)], in series [2] (setting [7]), the “FeH2L (protonation constant of the Fe(III) complex)” value is listed as 9.47 (1)^b, the “FeH3L (protonation constant of the Fe(III) complex)” value was 7.82 (5)^b and the “FeHL (protonation constant of the Fe(III) complex)” value (“FeHL” for short) is 10.53 (4)^b. In series [3], the “pFe (−log [Fe^3+]free, conditional stability)” value is 32.4. Further, in series [3] (4 weeks, 87 µM, pH 11), the “FeL (thermodynamic stability constant, log KFeL)” value is reported as 44.0 (3). The “kd” value in series [4] (1.0M NaClO4, 25° C., CZE, extrapolated from data at pH>9.0) was 1.9 × 10^−9 s^−1.

Regarding `Cc1cc(CNC(CO)CO)c(O)c(CN2CCNCCN(Cc3cc(C)cc(CNC(CO)CO)c3O)CC2)c1` [Compound 4, 2,2′-{1,4,7-triazonane-1,4-diylbis[methylene(2-hydroxy-5-methyl-3,1-phenylene)methyleneazanediyl]}di(propane-1,3-diol)], in series [2] (setting [7]), the “FeH2L (protonation constant of the Fe(III) complex)” value is reported as 6.02 (1)^b, the “FeHL” value is on record as 8.82 (1)^b and the “FeLH−1 (protonation constant of the Fe(III) complex)” value was 10.12 (1)^b. Also, the “pFe (−log [Fe^3+]free, conditional stability)” value in series [3] is on record as 26.5. Besides, the “kd” value in series [4] (setting [8]) is 3.4 × 10^−8 s^−1.

Consider `O=C(O)CN(CCN(CC(=O)O)CC(=O)O)CC(=O)O` [EDTA], for which, in series [1], the “kd” value was 2.9 × 10^−6 s^−1.

Take `O=C([O-])CN(CCN(CC(=O)[O-])Cc1ccccc1[O-])Cc1ccccc1[O-].[Fe+3]` [Fe(HBED)]: the “FeL (thermodynamic stability constant, log KFeL)” value in series [5] worked out at 40.2.

In the case of `O=C(O)CN(CCN(CC(=O)O)Cc1ccccc1O)Cc1ccccc1O` [HBED, N,N′-bis(2-hydroxybenzyl)ethylenediamine-N,N′-diacetic acid, reference compound], in series [2] (setting [9]), the “FeHL” value is on record as 1.87 (4) and the “FeLH−1 (protonation constant of the Fe(III) complex)” value is reported as 12.3 (1). Also, the “r1 of Fe(III) complex” value in series [6] was 0.49 mM⁻¹ s⁻¹.

Consider `O=C(O)CN1CCN(CC(=O)O)CCN(CC(=O)O)CC1` [NOTA, reference compound], for which the “FeLH−1 (protonation constant of the Fe(III) complex)” value in series [2] (setting [9]) is given as 9.12 (4). For the same compound, the “kd” value in series [4] (setting [8]) is on record as 4.0 × 10^−9 s^−1.
